The values that follow come from US20200010413A1, “Benzoquinone derivatives for treatment of cancer and methods of making the benzoquinone derivatives” (United Arab Emirates University, priority 2016, published 2020).

Series [1] concerns telomeric G-quadruplex DNA AGGG(TTAGGG)3. Nature of the series: UV-Vis absorption titration, Scatchard plot and molar ratio method. Type of series: binding, human. Particulars: Scatchard plot of UV-Vis titration, Tris-KCl buffer pH 7.4. The method, then:
Telomeric G-quadruplex DNA was prepared by heating gently 2.0 ml of stock single stranded 5′-[…]-3′ DNA (SEQ ID NO: 1) up to 95.0° C. Resultant solution was incubated at 95.0° C. for 10 min. The solution was left to cool gently down to room temperature, then kept in fridge at 4.0° C. overnight before use. A 10^−5 M fluorescein labeled G-quadruplex DNA was prepared similarly using 5′-Flu-telomeric DNA.
Successive amounts of G-quadruplex DNA (AGGG(TTAGGG)3, 1.44×10^−4 M) were added to 1.00 ml of each BQ (5×10^−6 M) in Tris-KCl buffer, pH 7.4. Solution was shacked well after each addition, incubated for 3 min at room temperature and its absorbance was scanned in the range 200-600 nm. Titration was stopped when no change in absorbance was observed. The experiment was reversed by adding successive amounts of the each BQ (1×10^−3 M) to 1.0 ml of 4×10^−6 M G-quadruplex DNA.
The molar ratio method based on measuring UV-Vis absorption was used for determining stoichiometry of G-quadruplex DNA interactions with BQs. A 1.00 ml BQs (5×10^−6 M) was titrated with telomere G-quadruplex (1.44×10^−4 M) in Tris-KCl buffer, pH 7.4. […] A plot of absorbance versus molar ratio [BQs]/[DNA] was constructed. […]
where Af, A and Ab are the absorbance at zero addition, after each addition and at saturation, respectively. […]

The test system of series [2] is prostate cancer cells (C42B). Nature of the series: MTT cell viability assay, C42B. Type of series: cell-based, human. Particulars: for IC50: Homo sapiens, 72 hrs; for loss of cell viability: 72 hours, BQs 1.0-25.0 μM, relative to control (DMSO). The method, then:
(§1) Human cancer cell lines were purchased from Hyclone Laboratories, Utah, USA. Pancreatic cancer cells (L3.6pl and MiaPaCa-2) and breast cancer cells (MCF-7) were maintained in DMEM while lung cancer cells (H1299) and prostate cancer cells (C42B) were maintained in RPMI 1640 media. All media were supplemented with antibiotics (penicillin 50 U/ml; streptomycin 50 μg/ml) and 10% fetal bovine serum (FBS, Biowest, Nouaille, France).
(§2) BQs were tested for their antiprolifrative activity in vitro using MTT assay on human pancreatic cancer cells (L3.6pl and MiaPaCa-2), human lung cancer cells (H1299), human breast cancer cells (MCF-7) and human prostate cancer cells (C42B).
(§3) The cell viability test was conducted by seeding pancreatic (L3.6pl and MiaPaCa-2), lung (H1299), breast (MCF-7) and prostate (C42B) cancer cells into 96-well culture plates at a density of 3×10^3 cells per well. Cells were then exposed to increasing doses (0-25 μM) of BQs for 72 hrs and MTT assay was performed using thymoquinone as a positive control in all experiments. The results were plotted as means±SD of at least three separate experiments using six determinations per experiment. Data were presented as proportional viability (%) by comparing the treated group with the untreated cells whose viability is assumed to be 100%. IC50s of the BQs were estimated from the linear plots of concentrations versus cell viabilities.

In series [3] the test system is telomeric G-quadruplex DNA. Nature of the series: Melting temperature curves by CD, G-quadruplex-BQs complexes. Particulars: for Tm of G-quadruplex-BQ complex / ΔTm of G-quadruplex-BQ complex: CD, equimolar BQ, Tris-KCl buffer pH 7.4; for selectivity towards G-quadruplex over ct-DNA: from differences between ΔTm (G-quadruplex) and ΔTm (ct-DNA). In kind it is binding, human. Here is the method: (§4) Melting temperature curves for telomere G-quadruplex, ct-DNA and their BQs' adducts were constructed using CD spectral measurements. A 1.0 ml telomeric G-quadruplex (3.93×10^−6 M) or ct-DNA (100.00 ppm) in Tris-KCl-buffer, pH 7.4 was heated in the range 25-95° C. applying 2.0-5.0° C. increments and using 5 min incubation time intervals. The CD spectra in the range 200-400 nm were recorded at each temperature using the scan parameters described in previous section. BQs complexes with G-quadruplex or ct-DNA were prepared by mixing equimolar amounts of G-quadruplex (1.44×10^−4 M) with BQs (1×10^−4 M) or ct-DNA (1000 ppm) with BQs (1×10^−4 M) solution in 1.0 ml KCl-buffer pH 7.4. Solutions were incubated for 30 min before scan. Collected CD spectra were smoothed and baseline corrected against blank solution. Intensities of CD peaks for G-quadruplex, ct-DNA and their BQs' complexes at 293 and 282 nm were recorded. Plots of CD intensities versus temperature were constructed.

The next series concerns ct-DNA (calf thymus DNA). Nature of the series: Melting temperature curves by CD, ct-DNA-BQs complexes. Type of series: binding. Particulars: Tris-KCl buffer pH 7.4. Here is the method: Calf thymus ds-DNA (1000 μg/ml; 8×10^−8 M) was prepared by dissolving 10.0 mg of DNA into 10.0 ml Tris-KCl buffer, pH 7.4, without sonication or stirring. To prevent shearing of the large genomic DNA, the solution was gently inverted overnight at 4.0° C. to completely solubilize the DNA. Solutions of DNA are stable for several months at 4.0° C. in Tris-KCl buffer pH 7-8.
as §4, with “scan.” for “scan. Collected CD spectra were smoothed and baseline corrected against blank solution. Intensities of CD peaks for G-quadruplex, ct-DNA and their BQs' complexes at 293 and 282 nm were recorded. Plots of CD intensities versus temperature were constructed.”
Collected CD spectra were smoothed and baseline corrected against blank solution. Intensities of CD peaks for G-quadruplex, ct-DNA and their BQs' complexes at 293 and 282 nm were recorded. Plots of CD intensities versus temperature were constructed.

The subject of series [4] is pancreatic cancer cells (MiaPaCa-2). Nature of the series: MTT cell viability assay, MiaPaCa-2. In kind it is cell-based, human. The conditions noted are these: for IC50: Homo sapiens, MIA PaCa-2, MiaPaCa-2, 72 hrs. The method, then:
as §1, §2, §3

For series [5], the system named is lung cancer cells (H1299). Nature of the series: MTT cell viability assay, H1299. In kind it is cell-based, human. The conditions noted are these: for inhibition in cell viability: H1299, 72 hours, BQs 1.0-25.0 μM, relative to control (DMSO). The method, then: as §1, §2, §3
A general note: Tetrazolium dyes change colour on reduction, which living cells bring about.

The test system of series [6] is pancreatic cancer cells (L3.6pl). Nature of the series: MTT cell viability assay, L3.6pl. Type of series: cell-based, human. Here is the method:
as §1, §2, §3

The test system of series [7] is breast cancer cells (MCF-7). Nature of the series: MTT cell viability assay, MCF-7. In kind it is cell-based, human. The conditions noted are these: for loss of cell viability: MCF-7, 72 hours, BQs 1.0-25.0 μM, relative to control (DMSO). Here is the method:
as §1, §2, §3

The subject of series [8] is examined cancer cell lines. Nature of the series: MTT cell viability assay, cell line not given (panel). In kind it is cell-based. The conditions noted are these: Homo sapiens; cell line not specified. Here is the method:
as §1, §2, §3

Regarding `O=C1C=C(Nc2cccc(C(F)(F)F)c2)C(=O)C=C1Nc1cccc(C(F)(F)F)c1` [BQ1, 2,5-bis-(3-trifluoromethylanilino)-1,4-benzoquinone], the melting point lay in the range of 280 to 282.5 °C. For the same molecule, in series [1], the “binding constant (K) towards G-quadruplex DNA” value was 728000 M⁻¹. This molecule returned an IC50 in series [2] of 43.2 µM. Further, in series [3], the “Tm of G-quadruplex-BQ complex” value was determined as 75.5 °C and the “ΔTm of G-quadruplex-BQ complex” value came out at 7.5 °C. In addition, in the series with ct-DNA (calf thymus DNA), the “Melting temperature shift (ΔTm) of ct-DNA on BQ binding” value was determined as 5.8 °C.
`O=C1C=C(Nc2cc(F)c(F)c(F)c2)C(=O)C=C1Nc1cc(F)c(F)c(F)c1` [BQ2, 2,5-bis-(3,4,5-trifluoroanilino)-1,4-benzoquinone] displayed a melting point above 350 °C.
With `COc1ccc(NC2=CC(=O)C(Nc3ccc(OC)cc3)=CC2=O)cc1` [BQ3, 2,5-bis-(4-methoxylanilino)-1,4-benzoquinone], the melting point fell in the range of 323 to 325 °C. In addition, it took 7.68 µM to reach half-maximal inhibition in series [4] (IC50). Moreover, in [3], the “selectivity towards G-quadruplex over ct-DNA” value is on record as “low selectivity”. Further, the “ΔTm, G-quadruplex versus ct-DNA” value in series [3] (stabilized both G-quadruplex and ct-DNA) is around 0.2 °C. Besides, the “Melting temperature shift (ΔTm) of ct-DNA on BQ binding” value with ct-DNA (calf thymus DNA) amounted to 3.8 °C.
On to `O=C1C=C(Nc2ccc(F)cc2)C(=O)C=C1Nc1ccc(F)cc1` [BQ4, 2,5-bis-(4-fluoroanilino)-1,4-benzoquinone], for which the melting point was above 350 °C. For the same molecule, in series [3], the “Tm of G-quadruplex-BQ complex” value came to 68.1 °C and the “ΔTm of G-quadruplex-BQ complex” value came to 0.1 °C. Further, half-maximal inhibition in series [5] (Homo sapiens, NCI-H1299, H1299, 72 hrs) (IC50) required 7.48 µM.
Take `O=C1C=C(Nc2ccccc2)C(=O)C=C1Nc1ccccc1` [BQ5, 2,5-bis-anilino-1,4-benzoquinone]: the melting point was 342 to 345 °C. Also, in [2], the “loss of cell viability” value is 27.25% and it took 42.1 µM to reach half-maximal inhibition (IC50). Moreover, the “selectivity towards G-quadruplex over ct-DNA” value in series [3] (listed as BQS) is listed as 3.5 folds.
Turning to `O=C1C=C(NCCN2CCOCC2)C(=O)C=C1NCCN1CCOCC1` [BQ7, 2,5-bis((2-morpholinoethyl)amino)-1,4-benzoquinone], the melting point was in the range of 184 to 188 °C. In addition, the “loss in cell viability” value in series [4] (MiaPaCa-2, 72 hours, BQs 1.0-25.0 μM, relative to control (DMSO)) is 7.53%. For the same molecule, the “loss of cell viability” value in [2] is given as 1.29%. Also, the “inhibition in cell viability” value in series [5] was determined as 20.81%.
For the molecule `O=C1C=C(NC2CCCC2)C(=O)C=C1NC1CCCC1` [BQ8, 2,5-bis-(cyclopentylamino)-1,4-benzoquinone], the melting point lay within 289 to 291 °C. For the same molecule, the “inhibition in cell viability” value in [6] (72 hours, BQs 1.0-25.0 μM, relative to control (DMSO)) amounted to 26.97%.
In turn, `O=C1C=C(NCCN2CCCC2)C(=O)C=C1NCCN1CCCC1` [BQ9, 2,5-bis((2-(pyrrolidin-1-yl)ethyl)amino)-1,4-benzoquinone] yielded a melting point of 159 to 162 °C. In series [7], the “loss of cell viability” value was 92.50%. The “inhibition in cell viability” value in series [5] is 84.40%. In series [8], this molecule came in with an IC50 below 10 µM.
Molecule `O=C1C=C(NCc2ccc(C(F)(F)F)cc2)C(=O)C=C1NCc1ccc(C(F)(F)F)cc1` [BQ10, 2,5-bis-(4-trifluoromethylbenzylamino)-1,4-benzoquinone] displayed a melting point of 271 to 274 °C. In [7] (Homo sapiens, MCF7, MCF-7, 72 hrs), this molecule showed an IC50 of 8.04 µM. The IC50 in series [8] is below 10 µM.
The molecule `O=C1C=C(NCc2ccc(F)cc2)C(=O)C=C1NCc1ccc(F)cc1` [BQ11, 2,5-bis-(4-fluorobenzylamino)-1,4-benzoquinone] displayed a melting point of 248 to 250 °C. For the same molecule, the IC50 in [6] (Homo sapiens, 72 hrs) was found to be 9.67 µM. For the same molecule, 6.18 µM corresponded to half-maximal inhibition in [4] (IC50). Further, the “Tm of G-quadruplex-BQ complex” value in series [3] was “lowest”. Further, the IC50 in [8] was below 10 µM.
The molecule `COc1ccc(CNC2=CC(=O)C(NCc3ccc(OC)c(OC)c3)=CC2=O)cc1OC` [BQ12, 2,5-bis-(3,4-dimethoxybenzylamino)-1,4-benzoquinone] came in with a melting point of 256.5 to 258.5 °C. In series [7], the “loss of cell viability” value is 24.16%.
In turn, `O=C1C=C(NCc2ccccc2)C(=O)C=C1NCc1ccccc1` [BQ13, 2,5-bis-(benzylamino)-1,4-benzoquinone] returned a melting point of 254.5 to 256 °C.
Still for that read-out and setting: the result for `O=C1C=C(NCc2cc(C(F)(F)F)cc(C(F)(F)F)c2)C(=O)C=C1NCc1cc(C(F)(F)F)cc(C(F)(F)F)c1` [BQ14, 2,5-bis-(3,5-ditrifluoromethylbenzylamino)-1,4-benzoquinone] reads 237 to 239 °C.

Broadly, the IC50 is the concentration that gives 50% inhibition. Low readings indicate higher potency, high ones lower potency. The melting point is the temperature of the solid-liquid transition.
